Test results from patent US12162876B2, “Indazole kinase inhibitor and use thereof” (Tarapeutics Science Inc., priority 2018, dated 2024).

Tests used:
Format in all cases: cell-based
[1] = system: TEL-cKIT-BaF3; test: Cell proliferation (CCK-8, 72 h), TEL-cKIT-BaF3; conditions: Mus musculus, BaF3 expressing wild-type C-KIT kinase
From the text: (§1) In this example, human gastrointestinal stromal tumor cell line GIST-T1 (expressing wild-type C-KIT gene) (purchased from Cosmo Bio Co., Ltd. (Japan)), human gastrointestinal stromal tumor cell line GIST-T1-T670I (expressing C-KIT-T670I mutant gene) (constructed by our laboratory with CRISPR technology), mouse […] BaF3 (purchased from ATCC) were used. In addition, in this Example, mouse Tel-cKit-BaF3 (stably expressing C-KIT wild-type kinase), mouse Tel-cKit/T670I-BaF3 (stably expressing cKIT T670I mutant kinase), mouse Tel-PDGFRα-BaF3 (stably expressing PDGFRα kinase), mouse Tel-PDGFRβ-BaF3 (stably expressing PDGFRβ kinase), mouse Tel-VEGFR2-BaF3 (stably expressing VEGFR2 kinase), mouse Tel-FLT3-BaF3 (stably expressing FLT3 kinase) were also used. The above cell lines were all constructed by our laboratory. The construction method was as follows: the human C-KIT, C-KIT T670I, PDGFRα, PDGFRβ, VEGFR2, FLT3 kinase region sequences were amplified by PCR respectively and inserted into MSCV-Puro vector (purchased from Clontech) with N-terminal TEL fragment and/or NPM fragment and/or TPR fragment respectively, which was stably transferred into mouse BaF3 cells by retroviral method, and IL-3 growth factor was removed, and finally the cell lines in which protein was transferred depending on C-KIT, C-KIT/T670I, PDGFRα, PDGFRβ, VEGFR2, FLT3 were obtained. The GIST-T1-T670I (expressing C-KIT-T670I mutant gene) cell line was constructed by our laboratory. The construction method was as follows: the sgRNA targeting near the T670 site of the KIT gene was designed by the CRISPR design tool of the Zhang Feng Laboratory of the Massachusetts Institute of Technology (URL: crispr.mit.edu) and cloned into pSpCas9(BB)-2A-Puro vector (Addgene, USA); the obtained vector and a single-stranded oligonucleotide with T670I mutation near the T670 site were co-transfected into the cells, and after antibiotic selection, they were diluted and cultured in a single cell in a 96-well plate; the T670 site of the cells was sequenced and verified by the Sanger sequencing method.

[2] = system: TEL-cKIT/T670I-BaF3; test: Cell proliferation (CCK-8, 72 h), TEL-cKIT/T670I-BaF3; conditions: Mus musculus; BaF3 expressing cKIT T670I mutant kinase, 72 h, CCK-8; read-out: GI50 TEL-cKIT/T670I-BaF3
From the text: as §1

[3] = system: TEL-FLT3-BaF3; test: Cell proliferation (CCK-8, 72 h), TEL-FLT3-BaF3; conditions: Mus musculus, BaF3 expressing FLT3 kinase
From the text: as §1

[4] = system: BaF3; test: Cell proliferation (CCK-8, 72 h), parental BaF3; conditions: Mus musculus, parental BaF3 cells
From the text: as §1

[5] = system: TEL-PDGFRβ-BaF3; test: Cell proliferation (CCK-8, 72 h), TEL-PDGFRβ-BaF3; conditions: Mus musculus, BaF3 expressing PDGFRβ kinase
From the text: as §1

[6] = system: TEL-VEGFR2-BaF3; test: Cell proliferation (CCK-8, 72 h), TEL-VEGFR2-BaF3; conditions: Mus musculus, BaF3 expressing VEGFR2 kinase
From the text: as §1

[7] = system: TEL-PDGFRα-BaF3; test: Cell proliferation (CCK-8, 72 h), TEL-PDGFRα-BaF3; conditions: Mus musculus, BaF3 expressing PDGFRα kinase
From the text: as §1

Row | SMILES | GI50 [1] [nM] | GI50 [2] [nM] | GI50 [3] [nM] | GI50 [4] [nM] | GI50 [5] [nM] | GI50 [6] [nM] | GI50 [7] [nM]
1 | CSCCC(N)C(=O)Nc1nc(C)c(-c2ccc3c(/C=C/c4ccccn4)n[nH]c3c2)s1 (stereo not shown) [Compound 15, (E)-2-amino-N-(4-methyl-5-(3-(2-(pyridin-2-yl)vinyl)-1H-indazol-6-yl)thiazol-2-yl)-4-(methylthio)butanamide] | 961 | 16 | 2 | 594 | – | – | –
2 | Cc1nc(NC(=O)C(N)Cc2ccccc2)sc1-c1ccc2c(/C=C/c3ccccn3)n[nH]c2c1 (stereo not shown) [Compound 20, (E)-2-amino-N-(4-methyl-5-(3-(2-(pyridin-2-yl)vinyl)-1H-indazol-6-yl)thiazol-2-yl)-3-phenylpropionamide] | 361 | 37 | 3 | 708 | – | – | –
3 | Cc1nc(NC(=O)CN2CCN(C)CC2)sc1-c1ccc2c(-c3cncc(F)c3)n[nH]c2c1 [Compound 25, N-(5-(3-(5-fluoropyridin-3-yl)-1H-indazol-6-yl)-4-methylthiazole-2-yl)-2-(4-methylpiperazin-1-yl)acetamide] | 1460 | 241 | 18 | 1690 | – | – | –
4 | Cc1nc(NC(=O)C2CCN(C)CC2)sc1-c1ccc2c(/C=C/c3ccccn3)n[nH]c2c1 [Compound 16, (E)-1-methyl-N-(4-methyl-5-(3-(2-(pyridin-2-yl)vinyl)-1H-indazol-6-yl)thiazol-2-yl)piperidin-4 carboxamide] | 1350 | 323 | 2150 | 1510 | – | – | –
5 | Cc1nc(NC(=O)C(N)CC(C)C)sc1-c1ccc2c(/C=C/c3ccccn3)n[nH]c2c1 (stereo not shown) [Compound 18, (E)-2-amino-4-methyl-N-(4-methyl-5-(3-(2-(pyridin-2-yl)vinyl)-1H-indazol-6-yl)thiazol-2-yl)pentanamide] | 507 | 37 | 6 | 706 | – | – | –
6 | Cc1nc(NC(=O)c2ccncc2)sc1-c1ccc2c(/C=C/c3ccccn3)n[nH]c2c1 [Compound 4, (E)-N-(4-methyl-5-(3-(2-(pyridin-2-yl)vinyl)-1H-indazol-6-yl)thiazol-2-yl) isonicotinamide] | 1550 | 6 | 4 | > 10000 | 1 | 7 | 2
7 | Cc1nc(NC(=O)C2CCNCC2)sc1-c1ccc2c(/C=C/c3ccccn3)n[nH]c2c1 [Compound 14, (E)-N-(4-methyl-5-(3-(2-(pyridin-2-yl)vinyl)-1H-indazol-6-yl)thiazol-2-yl) piperidin-4-carboxamide] | 137 | 85 | 1.6 | 3100 | 18 | 42 | 7.4
8 | Cc1nc(NC(=O)c2cccc(C(F)(F)F)c2)sc1-c1ccc2c(/C=C/c3ccccn3)n[nH]c2c1 [Compound 6, (E)-N-(4-methyl-5-(3-(2-(pyridin-2-yl)vinyl)-1H-indazol-6-yl)thiazol-2-yl)-3-(trifluoromethyl)benzamide] | 24 | 12 | 2 | > 10000 | 3 | 5 | 1
9 | Cc1nc(NC(=O)CC2CCN(C)CC2)sc1-c1ccc2c(/C=C/c3ccccn3)n[nH]c2c1 [Compound 27, (E)-N-(4-methyl-5-(3-(2-(pyridin-2-yl)vinyl)-1H-indazol-6-yl)thiazol-2-yl)-2-(1-methylpiperidin-4-yl)acetamide] | 94 | 1 | < 1 | 605 | – | – | –
10 | CNC(=O)c1ccccc1Sc1ccc2c(/C=C/c3ccccn3)n[nH]c2c1 [Axitinib, reference compound] | 20 | 48 | 300 | 430 | 2 | < 0.1 | 1.4
11 | Cc1nc(NC(=O)c2ccc(Cl)c(C(F)(F)F)c2)sc1-c1ccc2c(/C=C/c3ccccn3)n[nH]c2c1 [Compound 2, (E)-4-chloro-N-(4-methyl-5-(3-(2-(pyridin-2-yl)vinyl)-1H-indazol-6-yl)thiazol-2-yl)-3-(trifluoromethyl)benzamide] | 135 | 84 | 4 | > 10000 | 13 | 40 | 2
12 | Cc1nc(NC(=O)Cc2cccc(C(F)(F)F)c2)sc1-c1ccc2c(-c3cccnc3)n[nH]c2c1 [Compound 28, N-(4-methyl-5-(3-(pyridin-3-yl)-1H-indazol-6-yl)thiazol-2-yl)-2-(3-(trifluoromethyl)phenyl)acetamide] | 48 | 7 | 0.1 | 2490 | – | – | –
13 | Cc1nc(NC(=O)CN2CCN(C)CC2)sc1-c1ccc2c(-c3cccc(F)c3)n[nH]c2c1 [Compound 26, N-(5-(3-(3-fluorophenyl)-1H-indazol-6-yl)-4-methylthiazol-2-yl)-2-(4-methylpiperazin-1-yl)acetamide] | 1020 | 83 | 26 | 1040 | – | – | –
14 | Cc1nc(NC(=O)CN2CCN(C)CC2)sc1-c1ccc2c(-c3cccnc3)n[nH]c2c1 [Compound 24, N-(4-methyl-5-(3-(pyridin-3-yl)-1H-indazol-6-yl)thiazol-2-yl)-2-(4-methylpiperazin-1-yl)acetamide] | 3210 | 114 | 12 | 5130 | – | – | –
15 | Cc1nc(NC(=O)Cc2cccc(Cl)c2)sc1-c1ccc2c(/C=C/c3ccccn3)n[nH]c2c1 [Compound 10, (E)-2-(3-chlorophenyl)-N-(4-methyl-5-(3-(2-(pyridin-2-yl)vinyl)-1H-indazol-6-yl)thiazol-2-yl)acetamide] | 70 | 37 | 2 | 4100 | – | 9.8 | 1.3
16 | Cc1nc(NC(=O)CN2CCN(C)CC2)sc1-c1ccc2c(-c3cnc(N)nc3)n[nH]c2c1 [Compound 23, N-(5-(3-(2-aminopyrimidin-5-yl)-1H-indazol-6-yl)-4-methylthiazol-2-yl)-2-(4-methylpiperazin-1-yl)acetamide] | 133 | 13 | 0.5 | 1560 | – | – | –
17 | Cc1nc(NC(=O)C(C)N)sc1-c1ccc2c(/C=C/c3ccccn3)n[nH]c2c1 (stereo not shown) [Compound 17, (E)-2-amino-N-(4-methyl-5-(3-(2-(pyridin-2-yl)vinyl)-1H-indazol-6-yl)thiazol-2-yl)propionamide] | 460 | 88 | 4 | 544 | – | – | –
18 | Cc1nc(NC(=O)C(C)C)sc1-c1ccc2c(/C=C/c3ccccn3)n[nH]c2c1 [Compound 19, (E)-N-(4-methyl-5-(3-(2-(pyridin-2-yl)vinyl)-1H-indazol-6-yl)thiazol-2-yl) isobutanamide] | 519 | 41 | 4 | 1580 | – | – | –
19 | COc1ccc(CC(=O)Nc2nc(C)c(-c3ccc4c(/C=C/c5ccccn5)n[nH]c4c3)s2)cc1OC [Compound 8, (E)-2-(3,4-methoxyphenyl)-N-(4-methyl-5-(3-(2-(pyridin-2-yl)vinyl)-1H-indazol-6-yl)thiazol-2-yl)acetamide] | 216 | 19 | 0.4 | 4870 | – | 19 | 1.2
20 | Cc1nc(NC(=O)C(O)CC(C)C)sc1-c1ccc2c(/C=C/c3ccccn3)n[nH]c2c1 (stereo not shown) [Compound 22, (E)-2-hydroxyl-4-methyl-N-(4-methyl-5-(3-(2-(pyridin-2-yl)vinyl)-1H-indazol-6-yl)thiazol-2-yl)pentanamide] | 1010 | 34 | 2 | 1530 | – | – | –
21 | Cc1nc(NC(=O)CN2CCN(C)CC2)sc1-c1ccc2c(-c3cnn(C)c3)n[nH]c2c1 [Compound 21, N-(4-methyl-5-(3-(1-methyl-1H-pyrazol-4-yl)-1H-indazol-6-yl)thiazol-2-yl)-2-(4-methylpiperazin-1-yl)acetamide] | 2740 | 984 | 68 | > 10000 | – | – | –
